# Key:
# [1] = system: HCV genotype 1b (HCV-1b) replicon cells; experiment: HCV genotype 1b replicon luciferase assay (EC50); assay type: cell-based, hepatitis C virus genotype 1b (Con1 clone); conditions: 3 days, luciferase (Bright-Glo)
# How it was run: (§1)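 Compounds were dispensed as 5-fold, 6-point series (highest 100, 10 or 1 nM; 0.5% DMSO) in duplicate. Replicon cells expressing luciferase (H77-derived for 1a, Con1-derived for 1b) were added at 8000 per well and grown 3 days. Luciferase activity was then measured and EC50 fitted.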
# [2] = system: HCV genotype 1a (HCV-1a) replicon cells; experiment: HCV genotype 1a replicon luciferase assay (EC50); assay type: cell-based, hepatitis C virus genotype 1a (H77 clone); conditions: Hepatitis C virus, 72 h, 3 days, luciferase (Bright-Glo)
# How it was run: as §1
# [3] = Cell Titer-fluor cell activity assay in HCV-1b replicon cells (CC50); assay type: cell-based
# Protocol: The EC50 and CC50 values of anti-HCV compounds were determined by HCV genotype 1a (HCV-1a) and 1B (HCV-1b) stable transfer replication (replicon) cells. The source of genotype 1a replicon is H77 clones containing K1691R, K2040R and S2204I adaptive mutations. The source of genotype 1b replicon is Con1 clones containing E1202G, T1280I and K1846T adaptive mutations.
# HCV Replicon Cell Lines: HCV-1a and HCV-1b Cells
# The compound powder was dissolved in 100% DMSO. Then the compound was diluted 5 times with 6 points, and added into the cell plate with Echo liquid handler. Ensure the final concentration of DMSO was 0.5%. Each compound was tested in double holes. Maximum initial concentration was 100, 10 or 1 nM, 5 times dilution, 6 points.
# b) Cell Culture (HCV-1a or HCV-1b Replicon Cell):
# 1) absorbing the culture supernatant of the cell culture and washing the cells with 10 mL PBS.
# 2) adding preheated pancreatin to the washed cell culture flasks, rotating culture bottle to make the bottom of the culture bottle uniformly covered by pancreatin, then placed into 37° C., 5% CO2 incubator to digest.
# 3) suspending cells in each T150 culture flask with 10-15 mL culture medium, absorbing 0.1 mL liquid and diluting 2 times by trypan blue solution as counted.
# 4) diluting cells to 8×10^4/mL with the culture medium, adding the diluted cells into the compound-containing 96-well plate (Greiner, Cat.#655090) (100 μL/well, 8000 cells/well) with automatic liquid separator (Thermo Scientific). Then place into a 37° C., 5% CO2 incubator for 3 days. Cell control well: no compound, only containing 0.5% DMSO.
# 5) adding chemiluminescent substrate Cell Titer-fluor to the cell well, after incubation for 30 minutes, detecting the signal by chemiluminescence detection system Envison (Ex at 405 nm and read at 515 nm). The effect of the compounds on the activity of HCV replicon cells was analyzed according to the luminescence data, which was used to calculate the CC50 values.
# The EC50 or CC50 values were obtained by nonlinear fitting analysis on inhibition percentage (inh %) data with GraphPad Prism software.
Structure (SMILES),"EC50 ([1]; Hepatitis C virus, 72 h)",EC50 [2],CC50 at 3 days [3],EC50 [1]
COC(=O)N[C@H](C(=O)N1CCC[C@H]1c1ncc(-c2ccc(-c3ccc(-c4cnc(C5C6CCC(C6)[C@H]5C(=O)NCc5cccnc5O)[nH]4)cc3)cc2)[nH]1)[C@@H](C)OC (stereo partly drawn) [AA_263_C],0.101 to 1 nM,10 to 100 nM,> 1 nM,–
COC(=O)N[C@H](C(=O)N1CCC[C@H]1c1ncc(-c2ccc(-c3ccc(-c4cnc([C@H]5C6CCC(C6)[C@@H]5C(=O)NCc5cncc(C(C)C)c5)[nH]4)cc3)cc2)[nH]1)C(C)C (stereo partly drawn) [AA_235_A],0.001 to 0.1 nM,10 to 100 nM,> 1 nM,–
COC(=O)N[C@H](C(=O)N1CCC[C@H]1c1ncc(-c2ccc(-c3ccc(-c4cnc([C@@H]5C6CCC(C6)[C@H]5C(=O)NCc5ccc(OC)nc5)[nH]4)cc3)cc2)[nH]1)C(C)C (stereo partly drawn) [AA_200_B],0.001 to 0.1 nM,1 to 10 nM,> 1 nM,–
COC(=O)N[C@H](C(=O)N1CCC[C@H]1c1ncc(-c2ccc(-c3ccc(-c4cnc(C5C6CCC(C6)[C@@H]5c5nc(-c6cccnc6)c[nH]5)[nH]4)cc3)cc2)[nH]1)C(C)C (stereo partly drawn) [AA_242],0.101 to 1 nM,10 to 100 nM,> 1 nM,–
COC[C@H](NC(=O)OC)C(=O)N1CCC[C@H]1c1ncc(-c2ccc(-c3ccc(-c4ccc([C@@H]5CCCN5C(=O)[C@@H](NC(=O)OC)C(C)C)[nH]4)cc3)cc2)[nH]1 [AG_100],0.001 to 0.1 nM,0.101 to 1 nM,> 1 nM,–
COC(=O)N[C@H](C(=O)N1CCC[C@H]1c1ncc(-c2ccc(-c3ccc(-c4[nH]c([C@@H]5CCCN5C(=O)[C@@H](NC(=O)OC)[C@@H](C)OC)c5c4CCCC5)cc3)cc2)[nH]1)C(C)C [AG_078_A],0.001 to 0.1 nM,10 to 100 nM,> 5 nM,–
COC(=O)N[C@H](C(=O)N1CCC[C@H]1c1ncc(-c2ccc(-c3ccc(-c4cnc(C5[C@H]6CC[C@H](C6)[C@H]5C(=O)N[C@@H](c5cccnc5)C(C)C)[nH]4)cc3)cc2)[nH]1)C(C)C (stereo partly drawn) [AA_233_ENDOA2_B],0.001 to 0.1 nM,10 to 100 nM,> 1 nM,–
COC(=O)N[C@H](C(=O)N1CCC[C@H]1c1ncc(-c2ccc(-c3ccc(-c4cnc(C5C6CCC(C6)[C@H]5C(=O)NCCc5ccncc5)[nH]4)cc3)cc2)[nH]1)[C@@H](C)OC (stereo partly drawn) [AA_266_B],0.101 to 1 nM,10 to 100 nM,> 1 nM,–
COC(=O)N[C@H](C(=O)N1CCC[C@H]1c1ncc(-c2ccc(-c3ccc(-c4cnc(C5C6CCC(C6)[C@H]5C(=O)NCc5ccc(C(C)C)nc5)[nH]4)cc3)cc2)[nH]1)[C@@H](C)OC (stereo partly drawn) [AA_265_B],0.101 to 1 nM,10 to 100 nM,> 1 nM,–
COC(=O)N[C@H](C(=O)N1C[C@@H](OC)C[C@H]1c1ncc(-c2ccc(-c3ccc(-c4cnc([C@@H]5C6CCC(C6)[C@H]5C(=O)NCc5cccnc5)[nH]4)cc3)cc2)[nH]1)[C@@H](C)OC (stereo partly drawn) [AA_231_A],0.001 to 0.1 nM,0.101 to 1 nM,> 1 nM,–
"COC(=O)NC(C(=O)N1CCCC1c1[nH]c(-c2ccc(-c3ccc(-c4cnc([C@@H]5CCCN5C(=O)[C@@H](NC(=O)OC)C(C)C)[nH]4)cc3)cc2)c2c1CCC2)C1CCOC1 (single isomer, unassigned) [AG_025_A]",–,10 to 100 nM,> 10 nM,0.001 to 0.1 nM
COC(=O)N[C@H](C(=O)N1CCC[C@H]1c1ncc(-c2ccc(-c3ccc(-c4cnc(C5C6CCC(C6)[C@H]5C(=O)NCc5cnccn5)[nH]4)cc3)cc2)[nH]1)[C@@H](C)OC (stereo partly drawn) [AA_268_B],0.001 to 0.1 nM,1 to 10 nM,> 1 nM,–
COC(=O)NC(C(=O)N1CCC[C@H]1c1ncc(-c2ccc(-c3ccc(-c4cnc(C5CCCC[C@@H]5C(=O)N(NC(=O)OC)C(C)C)[nH]4)cc3)cc2)[nH]1)C1CCOCC1 (stereo partly drawn) [AA_109],0.101 to 1 nM,10 to 100 nM,> 100 nM,–
COC(=O)N[C@H](C(=O)N1CCC[C@H]1c1ncc(-c2ccc(-c3ccc(-c4cnc([C@@H]5C6CCC(C6)[C@H]5C(=O)NCc5ccccc5)[nH]4)cc3)cc2)[nH]1)C(C)C (stereo partly drawn) [AA_207_B],0.001 to 0.1 nM,10 to 100 nM,> 1 nM,–

# Source: patent US10160771B2, “Hepatitis C virus inhibitors and uses thereof in preparation of drugs” (priority 2014, dated 2018)
